In US20250215039A1, “NUCLEOSIDES FOR TREATING CANCER” (PRIMEFOUR THERAPEUTICS, INC., priority 2022, published 2025):
Where two headings read alike, the source gives them in different places.

Test system: cancer cell lines
Assay: Cancer cell proliferation activity (CellTiterGlo, 72 h)
Assay type: cell-based
Details: 72 h, 72 h, read-out: IC50
Method in brief: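 Readout is CellTiterGlo luminescence after 72 h compound exposure (0.1% DMSO final), started one day post-seeding, at 37 °C.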

CC(C)C[C@]1(CO)O[C@@H](n2cnc3c(N)nc(F)nc32)C[C@@H]1O [Cpd. No. 133, (2R,3S,5R)-5-(6-amino-2-fluoro-9H-purin-9-yl)-2-(hydroxymethyl)-2-isobutyltetrahydrofuran-3-ol]
IC50 (5637 cell line (bladder)): 4.09 µM
IC50 (CLS439 cell line (bladder)): > 50 µM
IC50 (HS729 cell line (muscle)): 8.57 µM
IC50 (HSS78T cell line): 3.71 µM
IC50 (JAR cell line (placenta)): 3.66 µM
IC50 (SKMELS cell line): 4.92 µM
IC50 (Homo sapiens, 22Rv1, 72 h, 22RV1 cell line (prostate)): > 50 µM
IC50 (Homo sapiens, 786-0, 72 h, 786O cell line (kidney)): 2.59 µM
IC50 (Homo sapiens, A204, 72 h, A204 cell line (muscle)): 4.91 µM
IC50 (Homo sapiens, A549, 72 h, A549 cell line): 4.96 µM
IC50 (Homo sapiens, A673, 72 h, A673 cell line (bone)): > 50 µM
IC50 (Homo sapiens, A2780, 72 h, A2780 cell line (ovary)): 4.54 µM
IC50 (Homo sapiens, A-375, 72 h, A375 cell line (skin)): 3.67 µM
IC50 (Homo sapiens, A-431, 72 h, A431 cell line (skin)): 2.29 µM
IC50 (Homo sapiens, ACHN, ACHN cell line (kidney)): > 50 µM
IC50 (Homo sapiens, ASPC1, 72 h, ASPC1 cell line (pancreas)): 2.99 µM
IC50 (Homo sapiens, BT-20, 72 h, BT20 cell line (breast)): 4.14 µM
IC50 (Homo sapiens, BXPC-3, 72 h, BXPC3 cell line (pancreas)): 7.13 µM
IC50 (Homo sapiens, C-33-A, C33A cell line (cervical)): 4.28 µM
IC50 (Homo sapiens, CAKI-1, 72 h, CAKI1 cell line (kidney)): 0.41 µM
IC50 (Homo sapiens, COLO 205, 72 h, COLO205 cell line (colon)): 5.86 µM
IC50 (Homo sapiens, COLO-678, 72 h, COLO678 cell line (colon)): 9.54 µM
IC50 (Homo sapiens, Ca-Ski, CASKI cell line (cervical)): 2.33 µM
IC50 (Homo sapiens, Caco-2, 72 h, CACO2 cell line (colon)): 5.32 µM
IC50 (Homo sapiens, Calu-6, 72 h, CALU6 cell line (lung)): 3.07 µM
IC50 (Homo sapiens, DLD-1, 72 h, DLD1 cell line (colon)): > 50 µM
IC50 (Homo sapiens, DU-145, 72 h, DU145 cell line (prostate)): 3.3 µM
IC50 (Homo sapiens, EFO-21, 72 h, EFO21 cell line (ovary)): 3.75 µM
IC50 (Homo sapiens, EJ-28, 72 h, EJ28 cell line (bladder)): 5.11 µM
IC50 (Homo sapiens, Granta-519, 72 h, GRANTA-519 cell line (hematological)): > 50 µM
IC50 (Homo sapiens, HCT-15, 72 h, HCT15 cell line (colon)): > 50 µM
IC50 (Homo sapiens, HCT-116, 72 h, HCT116 cell line (colon)): 3.96 µM
IC50 (Homo sapiens, HEK293, 72 h, HEK293 cell line (kidney)): 5.3 µM
IC50 (Homo sapiens, HL-60, 72 h, HL-60 cell line (hematological)): 5.42 µM
IC50 (Homo sapiens, HT-29, 72 h, HT29 cell line (colon)): 2.16 µM
IC50 (Homo sapiens, HT-1080, 72 h, HT1080 cell line (connective tissue)): > 50 µM
IC50 (Homo sapiens, HeLa, HELA cell line (cervical)): 2.73 µM
IC50 (Homo sapiens, HepG2, 72 h, HEPG2 cell line (liver)): 3.32 µM
IC50 (Homo sapiens, IGROV-1, 72 h, IGROV1 cell line (ovary)): 2.72 µM
IC50 (Homo sapiens, IMR-90, 72 h, IMR.90 cell line): 2.76 µM
IC50 (Homo sapiens, J82, 72 h, J82 cell line (bladder)): 3.18 µM
IC50 (Homo sapiens, JEG-3, 72 h, JEG3 cell line (placenta)): 3.36 µM
IC50 (Homo sapiens, JIMT-1, 72 h, JIMT1 cell line (breast)): 1.43 µM
IC50 (Homo sapiens, K562, 72 h, K-562 cell line (hematological)): > 50 µM
IC50 (Homo sapiens, Kasumi 1, 72 h, KASUMI-1 cell line (hematological)): 1.54 µM
IC50 (Homo sapiens, L-363, 72 h, L-363 cell line (hematological)): 3.16 µM
IC50 (Homo sapiens, LoVo, LOVO cell line (colon)): 3.61 µM
IC50 (Homo sapiens, MCF7, 72 h, MCF7 cell line (breast)): > 50 µM
IC50 (Homo sapiens, MDA-MB-231, 72 h, MDAMB231 cell line (breast)): > 50 µM
IC50 (Homo sapiens, MDA-MB-435, 72 h, MDAMB435 cell line (skin)): > 50 µM
IC50 (Homo sapiens, MDA-MB-436, 72 h, MDAMB436 cell line (breast)): 3.36 µM
IC50 (Homo sapiens, MDA-MB-468, 72 h, MDAMB468 cell line (breast)): 2.58 µM
IC50 (Homo sapiens, MG-63, 72 h, MG63 cell line (bone)): > 50 µM
IC50 (Homo sapiens, MHH-ES-1, 72 h, MHHES1 cell line (bone)): 3.07 µM
IC50 (Homo sapiens, MIA PaCa-2, 72 h, MIAPACA2 cell line (pancreas)): > 50 µM
IC50 (Homo sapiens, MINO, MINO cell line (hematological)): 2.52 µM
IC50 (Homo sapiens, MV4-11, 72 h, MV4-11 cell line (hematological)): 3.35 µM
IC50 (Homo sapiens, NCI-H23, 72 h, NCI-H23 cell line (lung)): 3.33 µM
IC50 (Homo sapiens, NCI-H82, 72 h, NCIH82 cell line (lung)): 3.4 µM
IC50 (Homo sapiens, NCI-H292, 72 h, NCIH292 cell line (lung)): > 50 µM
IC50 (Homo sapiens, NCI-H460, 72 h, NCIH460 cell line (lung)): 5.43 µM
IC50 (Homo sapiens, OVCAR-3, 72 h, OVCAR3 cell line (ovary)): 1.92 µM
IC50 (Homo sapiens, OVCAR-4, 72 h, OVCAR4 cell line (ovary)): 4.25 µM
IC50 (Homo sapiens, PANC-1, 72 h, PANC1 cell line (pancreas)): > 50 µM
IC50 (Homo sapiens, PC-3, 72 h, PC3 cell line (prostate)): 3.83 µM
IC50 (Homo sapiens, PLC-PRF-5, 72 h, PLCPRF5 cell line (liver)): > 50 µM
IC50 (Homo sapiens, Panc1005, 72 h, PANC1005 cell line (pancreas)): 2.98 µM
IC50 (Homo sapiens, RD, RD cell line (muscle)): 4.61 µM
IC50 (Homo sapiens, Ramos, RAMOS cell line (hematological)): 3.68 µM
IC50 (Homo sapiens, SAOS-2, 72 h, SAOS2 cell line (bone)): 4.32 µM
IC50 (Homo sapiens, SF-268, 72 h, SF268 cell line (brain)): > 50 µM
IC50 (Homo sapiens, SF-295, 72 h, SF295 cell line (brain)): > 50 µM
IC50 (Homo sapiens, SK-BR-3, 72 h, SKBR3 cell line (breast)): 1.09 µM
IC50 (Homo sapiens, SK-HEP1, 72 h, SKHEP1 cell line (liver)): 5.13 µM
IC50 (Homo sapiens, SK-LMS-1, 72 h, SKLMS1 cell line (uterus)): 4.34 µM
IC50 (Homo sapiens, SK-MEL-28, 72 h, SKMEL28 cell line (skin)): 3.69 µM
IC50 (Homo sapiens, SK-N-AS, SKNAS cell line (brain)): 2.78 µM
IC50 (Homo sapiens, SK-N-SH, SKNSH cell line (brain)): 2.65 µM
IC50 (Homo sapiens, SK-OV-3, 72 h, SKOV3 cell line (ovary)): 3.01 µM
IC50 (Homo sapiens, SNB-75, 72 h, SNB75 cell line (brain)): 9.06 µM
IC50 (Homo sapiens, SU-DHL10, 72 h, SU-DHL-10 cell line (hematological)): 4.84 µM
IC50 (Homo sapiens, SU-DHL-6, 72 h, SU-DHL-6 cell line (hematological)): 3.29 µM
IC50 (Homo sapiens, SW-620, 72 h, SW620 cell line (colon)): 3.44 µM
IC50 (Homo sapiens, T-24, 72 h, T24 cell line (bladder)): 3.9 µM
IC50 (Homo sapiens, TE-671, 72 h, TE671 cell line (muscle)): > 50 µM
IC50 (Homo sapiens, THP-1, 72 h, THP-1 cell line (hematological)): > 50 µM
IC50 (Homo sapiens, U2OS, U2OS cell line (bone)): 2.64 µM
IC50 (Homo sapiens, U-87 MG, U87MG cell line (brain)): > 50 µM
IC50 (Homo sapiens, UMUC3, 72 h, UMUC3 cell line (bladder)): > 50 µM
IC50 (Homo sapiens, UO-31, 72 h, UO31 cell line (kidney)): 2.15 µM
IC50 (Homo sapiens, WSU-NHL, WSU-NHL cell line (hematological)): 3.41 µM
IC50 (MT-3, 72 h, MT3 cell line (breast)): 2.87 µM
IC50 (NCI-H358M, NCIH358M cell line (lung)): 2.68 µM
IC50 (PBMC, PBMC (hematological)): > 50 µM
IC50 (RD-ES, RDES cell line (bone)): 3.07 µM
